{
  "source": "patent US20240108610A1",
  "about": "“RECTAL ADMINISTRATION OF ROFLUMILAST FOR THE TREATMENT OF CROHN'S DISEASE” (King Abdulaziz University, priority 2022, published 2024)",
  "key": {"IL-2": {"test_system": "IL-2", "assay": "Serum IL-2 ELISA in TNBS-induced colitis", "format": "in vivo, rat", "conditions": "means±SE, n = 8", "method": "(§1) Chronic colitis was induced by weekly rectal injections of increasing doses of TNBS over 6 weeks (15, 30, 45, 60, 60, and 60 mg from day 0 to day 35), as previously described (4,12). Briefly, after food deprivation for 24 h, rats were anesthetized with an intraperitoneal injection of 1% isoflurane. TNBS was dissolved in ethanol (50%) and instilled into the colon using a cannula (0.25 mL), and then the rats were held upside down for 3 min to prevent escape of the intracolonic TNBS. Roflumilast was dissolved in dimethyl sulfoxide and diluted in 0.5% carboxymethyl cellulose sodium to a final concentration of 5.0 mg·kg^−1·day^−1 as previously described (13). Five groups of rats (n=8) were established: normal control (NC group), TNBS-treated (TNBS group, positive control), and three TNBS-treated groups that received oral sulfasalazine (SS group, 500 mg/kg) (14), oral roflumilast (by gastric gavage, OR group, 5 mg/kg), or rectal roflumilast (RR group, 5 mg/kg). Treatments were administered once daily in a volume of 200 μL for 15 days starting 48 h after the induction of colitis (from day 37) (15), and the control rats received equal amounts of vehicle. At the end of the treatment period, the rats were evaluated with the colitis activity score. To detect the effects of the treatments on systemic inflammatory processes, blood was collected for measurements of the proinflammatory mediators TNF-α, IL-2, and IL-6. At the end of the 15-day treatment period, the rats were sacrificed by cervical dislocation, and the colon was isolated, cleaned of feces, and measured for weight and length. Colonic myeloperoxidase (MPO) activity and glutathione (GSH) and malonaldehyde (MDA) levels were measured. The colon was examined macroscopically for gross changes and microscopically in sections stained with hematoxylin and eosin (H&E), Masson trichrome, and Periodic Acid Schiff (PAS) stains as well as KI-67 and TNF-α immunostaining. Blood was collected through cardiac puncture. The serum was obtained and stored at −80° C. until analysis. […]"}, "KI-67": {"test_system": "KI-67", "assay": "KI-67 immunostaining of colonic sections", "format": "in vivo, rat", "method": "as §1, with “[…] This primary antibody” for “Blood”, “detected using avidin-biotin peroxidase detection solution (Dako), and the signal” for “collected through cardiac puncture. The serum”, “visualized using diaminobenzidine.” for “obtained and stored at −80° C. until analysis.”"}, "[1]": {"conditions": "oral, once daily for 15 days, SS 500 mg/kg, OR 5 mg/kg"}, "[2]": {"conditions": "rectal, 5 mg/kg once daily for 15 days"}, "[3]": {"conditions": "oral, once daily for 15 days, sulfasalazine 500 mg/kg, roflumilast 5 mg/kg"}},
  "note": "Marks after values point to notes of the source that are not given here.",
  "data": [
    {"molecule": "O=C(Nc1c(Cl)cncc1Cl)c1ccc(OC(F)F)c(OCC2CC2)c1", "note": "[roflumilast]", "values": [
      {"measurement": "serum level of IL-2", "setting": "IL-2; [1]", "result": "302.75 ± 11.32^g, h, i pg/mL"},
      {"measurement": "serum level of IL-2", "setting": "IL-2; [2]", "result": "363.87 ± 12.73^g pg/mL"},
      {"measurement": "KI-67 immunoexpression in the mucosa", "setting": "KI-67; [3]", "result": "mildly positive reactions"},
      {"measurement": "KI-67 immunoexpression in the mucosa", "setting": "KI-67; [2]", "result": "very mild positive reactions"}
    ]},
    {"molecule": "O=C(O)c1cc(/N=N/c2ccc(S(=O)(=O)Nc3ccccn3)cc2)ccc1O", "note": "[sulfasalazine]", "values": [
      {"measurement": "serum level of IL-2", "setting": "IL-2; [1]", "result": "257.97 ± 7.72^g pg/mL"},
      {"measurement": "KI-67 immunoexpression in the mucosa", "setting": "KI-67; [3]", "result": "moderately positive reactions"}
    ]}
  ]
}
